The source of these data is PMC9448371, “Synthesis and biological activity evaluation of 3-(hetero) arylideneindolin-2-ones as potential c-Src inhibitors” (Journal of Enzyme Inhibition and Medicinal Chemistry, 2022).

One series has as its target T1, c-Src (Homo sapiens, UniProt P12931).
T1 construct: His6 (N); purchased Merck-Millipore 14–326
The experiment in a line: c-Src kinase inhibition assay (ADP-Glo Kinase Assay). In kind it is biochemical. The following applies: Table 3; for inhibition at 100 µM: read-out: % Inhibition 100 µM; for IC50: read-out: ID50 (the source's name). On the procedure: To avoid peptide adsorption to the plastic surface, protein low-binding tubes were used. ADP-Glo Kinase Assay (Promega) was then used to detect kinase activity accordingly with manufacturer’s instruction with minor modifications. In details, reactions were transferred to white 384 well-plates and stopped by adding 10 µL of ADP-Glo Reagent (Promega) for 50 min at rt. 20 μL of Detection Reagent (Promega) was then added for 30 min and the reaction read using GloMax Discover microplate reader (Promega). Data were plotted using GraphPad Prism 5.0. […] Compounds tested were assumed to act as fully ATP-competitive inhibitors. Therefore, Ki values were calculated accordingly to Equation (2).

The test system of series [1] is human MCF7 breast cancer cell line. Briefly: Cytotoxicity, growth inhibition MTS assay. In kind it is cell-based. The settings on record: mean ± SD, triplicate; for IC50: Homo sapiens, MCF7, 72 h exposure, read-out: MCF-7 (IC50); for MCF-7 (IC50, μM): 72 h exposure. On the procedure: Cytotoxicity experiments were carried out using the human MCF7 breast cancer cell line (ATCC HTB-22). […] Compound potency was determined by a growth inhibition assay (CellTiter 96® Aqueous One Solution Cell Proliferation Assay MTS, Promega). 24 h after seeding in a 96-well plate, cells were exposed to the compounds (concentration range 1–100 µM) and 72 h later, 20 µL of 3–(4,5-dimethylthiazol-2-yl)-5–(3-carboxymethoxyphenyl)-2–(4-sulfophenyl)-2H-tetrazolium salt (MTS) was added to each well. […] Experiments were performed in triplicate.
On the technique in general: Tetrazolium dyes change colour on reduction, which living cells bring about.

Setting [2] is: 10 µM compound, tested as E/Z mixtures.
Setting [3] is: 100 µM compound, tested as E/Z mixtures.
The mark [4] stands for this setting: calculated from ID50 assuming fully ATP-competitive inhibition.

Entries after “also recorded” stand apart in the source; their conditions may differ.

T1 sequence (P12931 whole entry): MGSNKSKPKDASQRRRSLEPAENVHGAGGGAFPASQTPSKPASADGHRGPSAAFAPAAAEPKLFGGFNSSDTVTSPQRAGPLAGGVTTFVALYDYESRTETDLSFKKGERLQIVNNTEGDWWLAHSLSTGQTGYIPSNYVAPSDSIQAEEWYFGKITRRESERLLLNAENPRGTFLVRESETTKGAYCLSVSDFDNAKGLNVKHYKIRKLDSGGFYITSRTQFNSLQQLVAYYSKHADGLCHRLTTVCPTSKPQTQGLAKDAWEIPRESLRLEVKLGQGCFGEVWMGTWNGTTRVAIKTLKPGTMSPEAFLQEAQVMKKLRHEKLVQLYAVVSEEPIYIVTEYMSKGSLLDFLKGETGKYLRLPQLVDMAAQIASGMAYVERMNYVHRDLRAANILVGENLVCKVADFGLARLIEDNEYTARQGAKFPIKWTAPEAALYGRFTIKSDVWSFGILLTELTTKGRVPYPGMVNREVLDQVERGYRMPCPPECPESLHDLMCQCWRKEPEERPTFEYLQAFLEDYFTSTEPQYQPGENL

With `O=C1Nc2cc(Cl)ccc2C1=Cc1ccc([N+](=O)[O-])cc1` [Compound 33, 6-chloro-3–(4-nitrobenzylidene)indolin-2-one], the melting point (usually the temperature, or range, at which the solid turns liquid) was 322 to 323 °C (dec.). At c-Src (setting [2]), the inhibition (usually the percentage by which the read-out fell short of the control) at 10 µM is 53 ± 18.1%. Besides, the inhibition at 100 µM on c-Src (setting [3]) was 69.94 ± 0.19%. At c-Src (100 μM ATP), the ID50 entry is listed as “single-digit micromolar” and the IC50 came to 2.43 µM. For the same compound, at c-Src (setting [4]), the Ki (commonly the equilibrium dissociation constant of an inhibitor or competing ligand from its target) is 1.64 µM and the “Ki (ATP competitive)” value is given as “single-digit micromolar”. For the same compound, the IC50 in series [1] is greater than 100 µM.
As for `O=C1Nc2cc(Cl)ccc2C1=Cc1cnc(Br)s1` [Compound 49, 3-((2-bromothiazol-5-yl)methylene)-6-chloroindolin-2-one], the melting point was 262 to 263 °C (dec.). Further, on c-Src (setting [2]), the inhibition at 10 µM was 53.9 ± 26.6%. For the same compound, the inhibition at 100 µM on c-Src (setting [3]) came out at 76.8 ± 9.22%. On c-Src (100 μM ATP), the IC50 is greater than 10 µM. Also, in series [1], the “MCF-7 (IC50, μM)” value was “potency comparable to Dasatinib; also recorded: cytotoxicity comparable to that of the reference compound Dasatinib” and the IC50 is 33 ± 2 µM.
Compound `O=C1Nc2cc(Cl)ccc2C1=Cc1ccc2[nH]ccc2c1` [Compound 50, 3-((1H-indol-5-yl)methylene)-6-chloroindolin-2-one] showed a melting point of 238 to 239 °C. Further, the inhibition at 10 µM at c-Src (setting [2]) turned out to be 41.2 ± 1.12%. Further, at c-Src (setting [3]), the inhibition at 100 µM was found to be 96.1 ± 1.42%. Further, the IC50 on c-Src (100 μM ATP) is 9.14 µM. Further, the Ki at c-Src (setting [4]) was 6.17 µM. The IC50 in series [1] was 68 ± 2 µM.
`CCOC(=O)COc1ccc(C=C2C(=O)Nc3cc(Cl)ccc32)cc1` [Compound 43, Ethyl 2–(4-((6-chloro-2-oxoindolin-3-ylidene)methyl)phenoxy) acetate] showed a melting point of 158 to 159 °C. Further, the inhibition at 10 µM on c-Src (setting [2]) is 71.7 ± 2.27%. For the same compound, the “% Inhibition 100 µM” value at c-Src (100 µM compound, tested as E/Z mixtures, 100 µM) is “good activity”. In addition, on c-Src (setting [3]), the inhibition at 100 µM is 80.8 ± 6.47%. For the same compound, at c-Src (100 μM ATP), the IC50 came out at 3.24 µM. Besides, the IC50 in series [1] came out at 85 ± 2 µM.
Regarding `CN(C)c1ccc(C=C2C(=O)Nc3cc(Cl)ccc32)cc1` [Compound 34, 6-chloro-3–(4-(dimethylamino)benzylidene)indolin-2-one], the melting point was in the range of 253 to 254 °C. In addition, the inhibition at 10 µM on c-Src (setting [2]) came to 85%. Besides, the “% Inhibition 10 µM” value on c-Src (10 µM compound, tested as E/Z mixtures, listed as C00033, 10 µM) is 85.35 ± 6.98%. Further, at c-Src (setting [3]), the inhibition at 100 µM turned out to be 75.7 ± 7.63%. At c-Src (100 μM ATP), the IC50 was 0.71 µM. Moreover, at c-Src (setting [4]), the Ki is 0.48 µM. In series [1], the “MCF-7 (IC50, μM)” value was “did not show any cytotoxic activity” and the IC50 was greater than 100 µM.
